Results taken from patent publication US9101627B2, “Pharmaceutical compositions containing bradykinin antagonists and hyaluronic acid, and uses thereof” (ISTITUTO LUSO FARMACO D'ITALIA S.P.A., priority 2007, dated 2015).

How the values were obtained:
[1] = tested on: experimental model of osteoarthritis induced by intra-articular injection of sodium monoiodoacetate (MIA); assay: MIA-induced osteoarthritis model, incapacitance test (weight imbalance between paws); format: in vivo; details: rat; for time of maximal inhibitory effect after administration / reduction of the pain caused by osteoarthritis: 3 μg/25 μl i.a., single compound; for reduction of the pain caused by osteoarthritis: 7 days after MIA; for inhibitory effect at higher dose: 10 μg/25 μl i.a. versus 3 μg/25 μl; for duration of antinociceptive effect: single compound i.a.
Procedure: The activity of MEN16132, icatibant and hyaluronic acid was measured in an experimental model of osteoarthritis induced by intra-articular injection of sodium monoiodoacetate (MIA) which inhibits glycolysis in the chondrocytes, thus causing damage and death to those cells with consequent degeneration of the joint surface, in a very similar way to human osteoarthritis.
MIA (1 mg/25 μl) was injected into the intra-articular space of the right knee of the rat, while 25 μl of saline was administered to the left knee as internal control.
The administration of MIA causes pain, difficulty of walking and inability to bear weight on the paw corresponding to the treated knee; the weight of the body therefore falls mainly on the left paw, to an extent directly proportional to the pain perceived. This effect persists for many weeks. The imbalance in weight on the two weight-bearing paws, evaluated in a non-invasive way with the incapacitance test, measures the pain resulting from the joint damage (osteoarthritis) induced by MIA.
The purpose of this test was to evaluate the protective effect of bradykinin B2 receptor antagonists against experimental osteoarthritis, and to establish the effect of co-administration of hyaluronic acid.
Seven days after the treatment with MIA, the compounds under study were injected, and the test was repeated at various times to measure the painkilling effect and its duration.

[2] = tested on: patients with symptomatic OA of the knee; details: 58 patients, single intra-articular administration 90 μg/1 ml; cited from earlier work
[3] = tested on: patients with OA of the knee; details: intra-articular, 3×500 μg injections one week apart; cited from earlier work

Compound	time of maximal inhibitory effect after administration [1]	reduction of the pain caused by osteoarthritis [1]	inhibitory effect at higher dose [1]	duration of antinociceptive effect [1]	intensity of pain in the knee versus placebo [2]	duration of analgesic response after the treatment [3]	side effects [3]
Cc1cc(C)c2cccc(OCc3c(Cl)ccc(S(=O)(=O)NC4(C(=O)N5CCN(C(=O)[C@@H](N)CCC[N+](C)(C)C)CC5)CCOCC4)c3Cl)c2n1 [MEN16132, (4-(S)-Amino-5-(4-{4-[2,4-dichloro-3-(2,4-dimethyl-quinoline-8-yloxymethyl)-benzenesulphonylamino]-tetrahydro-pyran-4-carbonyl}-piperazin-1-yl)-5-oxo-pentyl]-trimethyl-ammonium]	3 days	55%	No further significant increase in inhibitory effect	lasted for over a week	–	–	–
NC(N)=NCCC[C@@H](N)C(=O)N[C@@H](CCCN=C(N)N)C(=O)N1CCC[C@H]1C(=O)N1C[C@H](O)C[C@H]1C(=O)NCC(=O)N[C@@H](Cc1cccs1)C(=O)N[C@@H](CO)C(=O)N1Cc2ccccc2C[C@@H]1C(=O)N1[C@H](C(=O)N[C@@H](CCCN=C(N)N)C(=O)O)C[C@@H]2CCCC[C@@H]21 [icatibant, H-D-Arg-Arg-Pro-Hyp-Gly-Thi-Ser-D-Tic-Oic-Arg-OH]	3 days	40%	No further significant increase in inhibitory effect	lasted for over a week	reduced the intensity of pain in the knee to a greater extent than the placebo	up to 3 months	negligible or no side effects
